In article PMC7554977, “Antimicrobial Peptides with Enhanced Salt Resistance and Antiendotoxin Properties” (International Journal of Molecular Sciences, 2020):
Read-outs that look alike come from different tables or passages of the source.

Legend:
[1] = tested on: Gram-negative and Gram-positive bacteria; conditions: cited from earlier work
From the text: Problems such as salt sensitivity, cost of synthesis, bioavailability, and stability have limited the therapeutic applications of antimicrobial peptides. Among these problems, salt sensitivity is directly related to the microbicidal mechanism of antimicrobial peptides. […] Similar problems have also been found with other antimicrobial peptides. || Recently, solution structures of S1 (Ac-KKWRKWLAKK-NH2) and S1-Nal-Nal (Ac-KKWRKWLAKKNal-Nal-NH2) in complex with LPS micelles have been reported. Both S1 and S1-Nal-Nal bound to LPS through the hydrophilic surface of their helices to the negatively charged region of LPS. S1-Nal-Nal further inserted deeper into the hydrophobic core of LPS micelles and created better hydrophobic interactions of its C-terminal β-naphthylalanine end-tags with the lipid A motif of LPS. The LPS-induced inflammation might then be prohibited. Moreover, a strategy was developed to increase salt resistance and L ... || To investigate the amphipathic helix–AGP–hydrophobic helix on the antimicrobial and neutralization activities of LPS, two peptides KR12 and RW6 were used for the N-terminal and C-terminal helices. […] Sequences of the designed peptides are listed in Table 1 and their helical wheel analyses ar ...

[2] = tested on: Acinetobacter sp. (BCRC number 14B0100); type: cell-based; conditions: MH and LYM media
From the text: (§1) Escherichia coli strain (ATCC 25922), Staphylococcus aureus sp. strain (ATCC 25923), Pseudomonas aeruginosa Migula strain (ATCC 27853) and Acinetobacter sp. (BCRC number 14B0100) were used to test the antibacterial activity of the peptides. All bacteria were purchased from Food Industry Research and Development Institute (Hsinchu, Taiwan), and Acinetobacter sp. is multiresistant to Ampicillin, Cefazolin, Cefoxitin, Ceftazidime, Ceftriaxone, Ciprofloxacin, Penicillin, Tetracycline and Imipenem. Bacteria were cultured in sterilized MH (Müller−Hinton) broth at 200 rpm and 37 °C for 8 h. After 8 h of culture, the concentrations of the inoculums were determined by measuring absorbance of optical density at 600 nm (OD 600 = 1, equal to approximately 10^8 CFU/mL) with Ultrospec 2100 pro UV−Visible spectrophotometer (Biochrom Ltd., Cambridge, UK)).
(§2) The antibacterial activities were determined by the standard broth microdilution method of the National Committee for Clinical Laboratory Standards with the MH and LYM broth. The LYM broth contains 5.4 mM KCl, 5.6 mM Na2HPO4, 0.5 mM MgSO4, and 1.0 mM sodium citrate. In addition, 0.4 mg of ZnCl2, 2.0 mg of FeCl3·6H2O, 0.1 mg of CuSO4·5H2O, 0.1 mg of MnSO4·H2O, 0.1 mg of Na2B4O7·10H2O, 700 mg of amino acid mixtures without tryptophan (Clontech), and 20 mg of L-tryptophan were added per liter of medium. A vitamin mixture (100X, Sigma) and glucose at final concentration of 2% were also added. We made 1 µL peptide solutions (ranging from 3200 µg/mL to 100 µg/mL in serial dilution) and mixed with 99 µL inoculum (5 × 10^5 CFU/mL) in a polypropylene 96-well plate. We measured the turbidity at OD 600 nm by ELISA plate reader (Thermo Max, Molecular Devices, Sunnyvale, CA, USA). The absorbance of culture medium and inoculum suspension without peptides were used as the negative and positive control, respectively. The MIC value is the lowest concentration of peptide at which there is no obvious growth (equal or more than 90%). […] All peptides were tested in triplicate.

[3] = tested on: LPS (interaction between LPS and factor C); experiment: Limulus amebocyte lysate (LAL) assay, LPS binding and neutralization; type: biochemical, Limulus Polyphemus; conditions: peptide 64 μg/mL; CSE 5 EU; absorbance 405 nm, 37 °C; triplicate
Method: The ability of binding and neutralizing LPS in vitro was measured by the LAL assay which is well-known as the most sensitive and specific method.
The abilities of designed peptides to bind and neutralize LPS were assessed using Limulus amebocyte lysate (LAL) assay (Cape Cod Inc., East Falmouth, MA, USA). LAL is an extract of amebocytes from the Atlantic horseshoe crab Limulus Polyphemus. LAL reacts with lipopolysaccharide (LPS) from bacteria. Different concentrations (5, 4, 2, 1, 0.5 EU) of control standard LPS (CSE) were mixed with LAL reagent water at the same volume of 25 μL to make a standard curve. The samples of 25 μL of different peptide concentrations (128, 64, 32, 16, 8 μg/mL) were mixed with 25 μL CSE (5 EU) in a 96-well plate. A portion of 50 μL of pyrochrome reagent was added to the wells immediately. The absorbance at 405 nm was measured by microplate reader at 37 °C every minute until 25 min.

[4] = tested on: Gram-positive and Gram-negative bacteria; type: cell-based
From the text: as §1, §2

For AKRHHGYKRKFH-NH2 [Peptide P-113], the “Efficacy in high salt conditions” value ([1]; high salt conditions) is given as “greatly reduced”.
In the case of “Ac-KRIVQRIKDFLR-NH2 [KR12, reference compound]”, the “Effectiveness against Acinetobacter sp. compared with the other three bacteria strains” value [2] is listed as “more effective”, the Antimicrobial activities [1] is listed as “possess antimicrobial activities” and the “LPS neutralization, inhibition in LAL assay” value [3] is listed as “less than 25%”.
For “Ac-KRIVQRIKDFLRAGPRRLVRI-NH2 [KR12AGPVR6]”, the MIC ([4]; 8 h) was 4~32 μg/mL.
With “Ac-KRIVQRIKDFLRAGPRRWWRW-NH2 [KR12AGPWR6]” the MIC ([4]; 8 h) was 2~4 μg/mL.
With Ac-RRWWRW-NH2 [RW6] the MIC ([4]; 8 h) was 8~32 μg/mL, the “MIC (antibacterial activity)” value ([4]; LYM broth with >100 mM NaCl added, triplicate) was “lost its antibacterial activity” and the MIC ([4]; MH broth, inoculum 5 × 10^5 CFU/mL, OD 600 nm, triplicate) was “lost its antibacterial activity”. The “LPS neutralization, inhibition in LAL assay” value [3] was “less than 25%”.
For WRWWRR [WR6], the Antimicrobial activities [1] is listed as “moderate antimicrobial activities”.
